In PubChem BioAssay AID248 (DTP/NCI, 2004):
“And” between values parts separate entries of the source, which are not always exact repeats. Identical values can stand only once. Toxic doses and inconclusive results are not listed. Cut-off read from the data, not from the text of the source: active = T/C of 150% or more; inactive = T/C below 125%.

Tested on: L1210 leukemia ip in BDF1 mice, survival T/C
Assay: NCI In Vivo Anticancer Drug Screen. Data for tumor model L1210 Leukemia (intraperitoneal) in B6D2F1 (BDF1) mice
Settings: endpoint: mean survival time, higher = longer survival
Method in brief: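 Mice bearing the transplanted tumor received compound or vehicle. Survival of the treated group was divided by that of the vehicle-treated control group to give the ratio.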

[1] = dose: 100.0 mg/kg/injection, schedule: Q01DX001 (ip), vehicle: Klucel (hydroxypropylcellulose) (HPC)
[2] = dose: 200.0 mg/kg/injection, schedule: Q01DX001 (ip), vehicle: Klucel (hydroxypropylcellulose) (HPC)
[3] = dose: 400.0 mg/kg/injection, schedule: Q01DX001 (ip), vehicle: Klucel (hydroxypropylcellulose) (HPC)
[4] = dose: 100.0 mg/kg/injection, schedule: Q04DX002 (ip), vehicle: Klucel (hydroxypropylcellulose) (HPC)
[5] = dose: 200.0 mg/kg/injection, schedule: Q04DX002 (ip), vehicle: Klucel (hydroxypropylcellulose) (HPC)
[6] = dose: 400.0 mg/kg/injection, schedule: Q04DX002 (ip), vehicle: Klucel (hydroxypropylcellulose) (HPC)
[7] = dose: 100.0 mg/kg/injection, schedule: Q01DX009 (ip), vehicle: Klucel (hydroxypropylcellulose) (HPC)
[8] = dose: 100.0 mg/kg/injection, schedule: Q04DX003 (ip), vehicle: Klucel (hydroxypropylcellulose) (HPC)
[9] = dose: 200.0 mg/kg/injection, schedule: Q01DX009 (ip), vehicle: Klucel (hydroxypropylcellulose) (HPC)
[10] = dose: 200.0 mg/kg/injection, schedule: Q04DX003 (ip), vehicle: Klucel (hydroxypropylcellulose) (HPC)
[11] = dose: 400.0 mg/kg/injection, schedule: Q01DX009 (ip), vehicle: Klucel (hydroxypropylcellulose) (HPC)
[12] = dose: 400.0 mg/kg/injection, schedule: Q04DX003 (ip), vehicle: Klucel (hydroxypropylcellulose) (HPC)
[13] = dose: 100.0 mg/kg/injection, schedule: Q04DX002 (ip), vehicle: saline with Tween-80
[14] = dose: 200.0 mg/kg/injection, schedule: Q04DX002 (ip), vehicle: saline with Tween-80
[15] = dose: 100.0 mg/kg/injection, schedule: Q04DX002 (ip), vehicle: saline
[16] = dose: 100.0 mg/kg/injection, schedule: Q01DX009 (ip), vehicle: saline with Tween-80
[17] = dose: 25.0 mg/kg/injection, schedule: Q01DX009 (ip), vehicle: Klucel (hydroxypropylcellulose) (HPC)
[18] = dose: 50.0 mg/kg/injection, schedule: Q01DX009 (ip), vehicle: Klucel (hydroxypropylcellulose) (HPC)
[19] = dose: 100.0 mg/kg/injection, schedule: Q01DX001 (ip), vehicle: carboxymethylcellulose (CMC)
[20] = dose: 200.0 mg/kg/injection, schedule: Q01DX001 (ip), vehicle: carboxymethylcellulose (CMC)
[21] = dose: 400.0 mg/kg/injection, schedule: Q01DX001 (ip), vehicle: carboxymethylcellulose (CMC)

Measured: T/C

C=C(C)C1(CC)C(=O)NC(=O)N(C)C1=O (stereo unspecified)
inactive: dose: 75.0 mg/kg/injection, schedule: Q01DX001 (ip), vehicle: carboxymethylcellulose (CMC) 102 % of control | dose: 75.0 mg/kg/injection, schedule: Q01DX001 (ip), vehicle: saline 97 % of control | dose: 150.0 mg/kg/injection, schedule: Q01DX001 (ip), vehicle: carboxymethylcellulose (CMC) 105 % of control | dose: 150.0 mg/kg/injection, schedule: Q01DX001 (ip), vehicle: saline 102 % of control | dose: 300.0 mg/kg/injection, schedule: Q01DX001 (ip), vehicle: carboxymethylcellulose (CMC) 103 % of control | dose: 300.0 mg/kg/injection, schedule: Q01DX001 (ip), vehicle: saline 108 % of control

O=C1CCc2nc(=O)c3c4ccccc4ccc3n21
inactive: [1] 94 % of control | [2] 100 % of control | [3] 99 % of control

CC(=O)C1(O)CCC2C3CC(C)C4=CC(=O)C=CC4(C)C3C(O)CC21C (stereo unspecified)
inactive: dose: 12.5 mg/kg/injection, schedule: Q04DX002 (ip), vehicle: Klucel (hydroxypropylcellulose) (HPC) 97 % of control | dose: 25.0 mg/kg/injection, schedule: Q04DX002 (ip), vehicle: Klucel (hydroxypropylcellulose) (HPC) 97 % of control | dose: 50.0 mg/kg/injection, schedule: Q04DX002 (ip), vehicle: Klucel (hydroxypropylcellulose) (HPC) 90 % of control

O=C(COc1cc(Cl)c(Cl)cc1Cl)NCCO
inactive: [4] 92 % of control | [5] 110 % of control | [6] 108 % of control

CN=C(N)Nc1ccc(C(=O)O)cc1
inactive: dose: 100.0 mg/kg/injection, schedule: Q01DX009 (ip), vehicle: water 102 % of control | dose: 100.0 mg/kg/injection, schedule: Q04DX003 (ip), vehicle: water 106 % of control | dose: 200.0 mg/kg/injection, schedule: Q01DX009 (ip), vehicle: water 107 % of control | dose: 200.0 mg/kg/injection, schedule: Q04DX003 (ip), vehicle: water 89 % of control | dose: 400.0 mg/kg/injection, schedule: Q01DX009 (ip), vehicle: water 106 % of control | dose: 400.0 mg/kg/injection, schedule: Q04DX003 (ip), vehicle: water 91 % of control

COc1cc(C(=O)NO)cc(OC)c1OC
inactive: dose: 100.0 mg/kg/injection, schedule: Q04DX003 (ip), vehicle: saline with Tween-80 97 % of control and 104 % of control | dose: 200.0 mg/kg/injection, schedule: Q04DX003 (ip), vehicle: saline with Tween-80 97 % of control and 110 % of control | dose: 400.0 mg/kg/injection, schedule: Q04DX003 (ip), vehicle: saline with Tween-80 97 % of control and 100 % of control

O/N=C1/CCCC/C1=C/C=C/c1ccccc1
inactive: [7] 97 % of control | [8] 100 % of control | [9] 97 % of control | [10] 94 % of control | [11] 97 % of control | [12] 93 % of control

Cc1ncc(CO)c2c1OC1=CCCCC1=C2
inactive: [13] 95 % of control | [14] 92 % of control

CC12OC1C(=O)c1ccccc1C2=O (stereo unspecified)
inactive: dose: 5.0 mg/kg/injection, schedule: Q04DX003 (ip), vehicle: Klucel (hydroxypropylcellulose) (HPC) 103 % of control | dose: 10.0 mg/kg/injection, schedule: Q04DX003 (ip), vehicle: Klucel (hydroxypropylcellulose) (HPC) 97 % of control

C=CCOCC(O)CN(CC(C)C)CC(C)C (stereo unspecified)
inactive: [7] 112 % of control | [8] 95 % of control | [9] 101 % of control | [10] 88 % of control | [12] 105 % of control

C=C(C)COc1c(C)c(C)c(OCC(C)C)c(C)c1C
inactive: dose: 50.0 mg/kg/injection, schedule: Q04DX003 (ip), vehicle: Klucel (hydroxypropylcellulose) (HPC) 96 % of control | [8] 93 % of control | [10] 93 % of control

Oc1ccccc1C=Nc1ccc(Cl)c(Cl)c1
inactive: [7] 93 % of control | [9] 93 % of control | [11] 96 % of control

CC(C)(C)NC(=O)/C=C\C(=O)O
inactive: dose: 100.0 mg/kg/injection, schedule: Q01DX009 (ip), vehicle: gum acacia 98 % of control | [8] 103 % of control | dose: 200.0 mg/kg/injection, schedule: Q01DX009 (ip), vehicle: gum acacia 95 % of control | [10] 105 % of control | dose: 400.0 mg/kg/injection, schedule: Q01DX009 (ip), vehicle: gum acacia 90 % of control | [12] 92 % of control

CCC1(c2ccccc2)OC1C(=O)OCCC(C)C (stereo unspecified)
inactive: [15] 93 % of control | dose: 200.0 mg/kg/injection, schedule: Q04DX002 (ip), vehicle: saline 93 % of control | dose: 400.0 mg/kg/injection, schedule: Q04DX002 (ip), vehicle: saline 101 % of control

CC(C)(Br)C(=O)c1ccco1
inactive: [16] 95 % of control

CC1(CCI)NC(=O)NC1=O (stereo unspecified)
inactive: [1] 98 % of control | [2] 104 % of control | [3] 111 % of control

Cc1cc(Cl)ccc1NC(=O)COc1ccc(Cl)cc1
inactive: [17] 100 % of control | [18] 90 % of control | [7] 88 % of control | [8] 104 % of control | [10] 101 % of control | [12] 92 % of control

Cc1ccc([N+](=O)[O-])cc1NC(=O)Nc1ccc(S(N)(=O)=O)cc1
inactive: [7] 97 % of control | [8] 96 % of control | [9] 98 % of control | [10] 92 % of control | [11] 103 % of control | [12] 91 % of control

COCCN=Cc1ccc(N(C)C)cc1
inactive: [13] 103 % of control | [14] 100 % of control | dose: 400.0 mg/kg/injection, schedule: Q04DX002 (ip), vehicle: saline with Tween-80 100 % of control

Cc1c(C(=O)N(C)C)no[n+]1[O-]
inactive: dose: 25.0 mg/kg/injection, schedule: Q04DX002 (ip), vehicle: saline 102 % of control | dose: 50.0 mg/kg/injection, schedule: Q04DX002 (ip), vehicle: saline 106 % of control | [15] 98 % of control

O=C1OC(n2ccc3ccccc32)c2ccccc21 (stereo unspecified)
inactive: dose: 100.0 mg/kg/injection, schedule: Q01DX001 (ip), vehicle: saline 105 % of control | dose: 100.0 mg/kg/injection, schedule: Q04DX003 (ip), vehicle: saline 89 % of control | dose: 200.0 mg/kg/injection, schedule: Q01DX001 (ip), vehicle: saline 96 % of control | dose: 200.0 mg/kg/injection, schedule: Q04DX003 (ip), vehicle: saline 92 % of control | dose: 400.0 mg/kg/injection, schedule: Q01DX001 (ip), vehicle: saline 102 % of control | dose: 400.0 mg/kg/injection, schedule: Q04DX003 (ip), vehicle: saline 89 % of control

O=C(NCCCl)NC1CCCc2ccccc21 (stereo unspecified)
inactive: dose: 6.25 mg/kg/injection, schedule: Q01DX009 (ip), vehicle: Klucel (hydroxypropylcellulose) (HPC) 95 % of control | dose: 12.5 mg/kg/injection, schedule: Q01DX009 (ip), vehicle: Klucel (hydroxypropylcellulose) (HPC) 94 % of control | [17] 90 % of control | [18] 92 % of control | [1] 105 % of control | [2] 91 % of control

CCCCNC(=O)Nc1ccc(C)cc1
inactive: [19] 100 % of control | [20] 103 % of control | [21] 97 % of control

CC(=O)OC1=C(CC(C)(C)C)C(=O)c2ccccc2C1=O
inactive: dose: 50.0 mg/kg/injection, schedule: Q01DX001 (ip), vehicle: carboxymethylcellulose (CMC) 103 % of control | [19] 103 % of control | [20] 100 % of control | [21] 105 % of control

OC(Cc1cc(CC(O)(C(F)(F)F)C(F)(F)F)ncn1)(C(F)(F)F)C(F)(F)F
inactive: [16] 108 % of control | dose: 200.0 mg/kg/injection, schedule: Q01DX009 (ip), vehicle: saline with Tween-80 97 % of control | dose: 400.0 mg/kg/injection, schedule: Q01DX009 (ip), vehicle: saline with Tween-80 97 % of control

Nc1nc(-c2ccccc2)nc2nc3[nH]c(=O)[nH]c(=O)c3nc12
inactive: [4] 94 % of control | [5] 102 % of control | [6] 98 % of control
